# Measured values taken from the kinase profiling compilation of Christmann-Franck et al. (2016).
# “And” between values parts separate entries of the source, which are not always exact repeats. Equal values may be shown once.
# Key:
# Assay in all cases: KINOMEscan competition binding
# Conditions in all cases: compound 10.0 µM
# DAPK2 (human) = DAPK2 (human) (UniProt Q9UIK4)
# CDC42BPG (human) = CDC42BPG (human) (UniProt Q6DT37)
# TGFBR2 (human) = TGFBR2 (human) (UniProt P37173)
# MAPK4 (human) = MAPK4 (human) (UniProt P31152)
# MAP4K2 (human) = MAP4K2 (human) (UniProt Q12851)
# RPS6KB1 (human) = RPS6KB1 (human) (UniProt P23443)
# NEK5 (human) = NEK5 (human) (UniProt Q6P3R8)
# CSF1R (human) = CSF1R (human) (UniProt P07333)
# PIM2 (human) = PIM2 (human) (UniProt Q9P1W9)
# CDK7 (human) = CDK7 (human) (UniProt P50613)
# CAMK2B (human) = CAMK2B (human) (UniProt Q13554)
# MAP3K6 (human) = MAP3K6 (human) (UniProt O95382)
# PIP4K2B (human) = PIP4K2B (human) (UniProt P78356)
# WEE1 (human) = WEE1 (human) (UniProt P30291)
# MAP3K7 (human) = MAP3K7 (human) (UniProt O43318)
# STK32A (human) = STK32A (human) (UniProt Q8WU08)
# TTK (human) = TTK (human) (UniProt P33981)
# [1] = molecular target: JAK2 JH1 catalytic (human) (UniProt O60674)
# MAPK7 (human) = MAPK7 (human) (UniProt Q13164)
# GSK3A (human) = GSK3A (human) (UniProt P49840)
# MAP3K15 (human) = MAP3K15 (human) (UniProt Q6ZN16)
# ULK1 (human) = ULK1 (human) (UniProt O75385)
# PDGFRB (human) = PDGFRB (human) (UniProt P09619)
# PRKACA (human) = PRKACA (human) (UniProt P17612)
# CSNK1G3 (human) = CSNK1G3 (human) (UniProt Q9Y6M4)
# MTOR (human) = MTOR (human) (UniProt P42345)
# DCLK2 (human) = DCLK2 (human) (UniProt Q8N568)
# MST1R (human) = MST1R (human) (UniProt Q04912)
# AAK1 (human) = AAK1 (human) (UniProt Q2M2I8)
# PAK4 (human) = PAK4 (human) (UniProt O96013)
# [2] = test system: KIT (human), P10721 [A829P]
# TAOK1 (human) = TAOK1 (human) (UniProt Q7L7X3)
# MAPK13 (human) = MAPK13 (human) (UniProt O15264)
# HIPK1 (human) = HIPK1 (human) (UniProt Q86Z02)
# GAK (human) = GAK (human) (UniProt O14976)
# STK11 (human) = STK11 (human) (UniProt Q15831)
# PRKCQ (human) = PRKCQ (human) (UniProt Q04759)
# SIK3 (human) = SIK3 (human) (UniProt Q9Y2K2)
# NEK1 (human) = NEK1 (human) (UniProt Q96PY6)
# BRSK1 (human) = BRSK1 (human) (UniProt Q8TDC3)
# Chain of CDK7 (human) (P50613 whole entry, looked up): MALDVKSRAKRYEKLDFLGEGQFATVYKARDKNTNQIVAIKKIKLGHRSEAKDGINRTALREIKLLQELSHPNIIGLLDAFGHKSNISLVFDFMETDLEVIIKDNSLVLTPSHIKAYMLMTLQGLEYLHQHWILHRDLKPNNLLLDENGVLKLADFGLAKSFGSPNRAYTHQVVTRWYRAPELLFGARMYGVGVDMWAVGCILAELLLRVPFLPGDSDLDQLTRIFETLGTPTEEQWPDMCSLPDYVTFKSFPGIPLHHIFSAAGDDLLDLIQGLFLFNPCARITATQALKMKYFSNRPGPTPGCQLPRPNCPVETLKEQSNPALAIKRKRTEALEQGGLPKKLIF
# Chain of TTK (human) (P33981 whole entry, looked up): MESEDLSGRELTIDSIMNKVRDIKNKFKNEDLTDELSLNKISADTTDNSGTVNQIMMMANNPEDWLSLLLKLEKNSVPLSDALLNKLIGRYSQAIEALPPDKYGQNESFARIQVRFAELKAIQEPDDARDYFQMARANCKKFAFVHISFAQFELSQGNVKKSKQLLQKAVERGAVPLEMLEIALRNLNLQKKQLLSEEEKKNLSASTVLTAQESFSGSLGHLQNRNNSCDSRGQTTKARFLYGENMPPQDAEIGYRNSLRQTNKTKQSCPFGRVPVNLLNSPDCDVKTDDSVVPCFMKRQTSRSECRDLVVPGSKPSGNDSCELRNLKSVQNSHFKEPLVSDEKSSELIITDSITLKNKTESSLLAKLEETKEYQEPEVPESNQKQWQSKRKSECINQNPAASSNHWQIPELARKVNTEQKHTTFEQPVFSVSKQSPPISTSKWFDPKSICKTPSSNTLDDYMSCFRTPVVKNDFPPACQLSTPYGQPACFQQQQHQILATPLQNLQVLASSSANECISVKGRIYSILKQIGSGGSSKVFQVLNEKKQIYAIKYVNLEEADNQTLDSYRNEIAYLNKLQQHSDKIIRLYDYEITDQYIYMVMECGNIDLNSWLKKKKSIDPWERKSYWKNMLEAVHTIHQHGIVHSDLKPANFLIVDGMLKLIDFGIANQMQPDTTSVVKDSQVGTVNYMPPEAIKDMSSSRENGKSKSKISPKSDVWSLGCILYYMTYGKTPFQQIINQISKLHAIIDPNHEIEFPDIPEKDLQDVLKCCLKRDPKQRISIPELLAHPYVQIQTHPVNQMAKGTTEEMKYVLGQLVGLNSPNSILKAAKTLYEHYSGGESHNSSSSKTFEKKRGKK
# Chain of NEK5 (human) (Q6P3R8 whole entry, looked up): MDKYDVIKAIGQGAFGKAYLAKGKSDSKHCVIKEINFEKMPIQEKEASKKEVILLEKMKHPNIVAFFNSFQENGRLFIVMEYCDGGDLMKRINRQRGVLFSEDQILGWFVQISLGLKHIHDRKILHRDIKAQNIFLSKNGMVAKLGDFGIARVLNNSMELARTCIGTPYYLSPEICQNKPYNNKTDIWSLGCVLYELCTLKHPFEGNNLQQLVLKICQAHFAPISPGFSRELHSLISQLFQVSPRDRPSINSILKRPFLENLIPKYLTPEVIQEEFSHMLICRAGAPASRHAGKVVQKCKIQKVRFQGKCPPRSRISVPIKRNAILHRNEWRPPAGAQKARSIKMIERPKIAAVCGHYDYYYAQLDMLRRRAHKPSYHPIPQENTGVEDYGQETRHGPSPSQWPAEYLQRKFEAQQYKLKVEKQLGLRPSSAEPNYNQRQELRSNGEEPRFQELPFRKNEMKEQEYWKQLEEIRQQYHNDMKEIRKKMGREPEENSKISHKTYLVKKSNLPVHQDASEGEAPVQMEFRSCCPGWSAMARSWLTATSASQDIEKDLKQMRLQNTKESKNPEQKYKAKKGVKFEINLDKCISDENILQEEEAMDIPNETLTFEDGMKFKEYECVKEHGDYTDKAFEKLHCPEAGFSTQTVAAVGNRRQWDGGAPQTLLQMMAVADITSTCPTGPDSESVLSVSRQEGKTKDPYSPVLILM
# Chain of MAP3K15 (human) (Q6ZN16 whole entry, looked up): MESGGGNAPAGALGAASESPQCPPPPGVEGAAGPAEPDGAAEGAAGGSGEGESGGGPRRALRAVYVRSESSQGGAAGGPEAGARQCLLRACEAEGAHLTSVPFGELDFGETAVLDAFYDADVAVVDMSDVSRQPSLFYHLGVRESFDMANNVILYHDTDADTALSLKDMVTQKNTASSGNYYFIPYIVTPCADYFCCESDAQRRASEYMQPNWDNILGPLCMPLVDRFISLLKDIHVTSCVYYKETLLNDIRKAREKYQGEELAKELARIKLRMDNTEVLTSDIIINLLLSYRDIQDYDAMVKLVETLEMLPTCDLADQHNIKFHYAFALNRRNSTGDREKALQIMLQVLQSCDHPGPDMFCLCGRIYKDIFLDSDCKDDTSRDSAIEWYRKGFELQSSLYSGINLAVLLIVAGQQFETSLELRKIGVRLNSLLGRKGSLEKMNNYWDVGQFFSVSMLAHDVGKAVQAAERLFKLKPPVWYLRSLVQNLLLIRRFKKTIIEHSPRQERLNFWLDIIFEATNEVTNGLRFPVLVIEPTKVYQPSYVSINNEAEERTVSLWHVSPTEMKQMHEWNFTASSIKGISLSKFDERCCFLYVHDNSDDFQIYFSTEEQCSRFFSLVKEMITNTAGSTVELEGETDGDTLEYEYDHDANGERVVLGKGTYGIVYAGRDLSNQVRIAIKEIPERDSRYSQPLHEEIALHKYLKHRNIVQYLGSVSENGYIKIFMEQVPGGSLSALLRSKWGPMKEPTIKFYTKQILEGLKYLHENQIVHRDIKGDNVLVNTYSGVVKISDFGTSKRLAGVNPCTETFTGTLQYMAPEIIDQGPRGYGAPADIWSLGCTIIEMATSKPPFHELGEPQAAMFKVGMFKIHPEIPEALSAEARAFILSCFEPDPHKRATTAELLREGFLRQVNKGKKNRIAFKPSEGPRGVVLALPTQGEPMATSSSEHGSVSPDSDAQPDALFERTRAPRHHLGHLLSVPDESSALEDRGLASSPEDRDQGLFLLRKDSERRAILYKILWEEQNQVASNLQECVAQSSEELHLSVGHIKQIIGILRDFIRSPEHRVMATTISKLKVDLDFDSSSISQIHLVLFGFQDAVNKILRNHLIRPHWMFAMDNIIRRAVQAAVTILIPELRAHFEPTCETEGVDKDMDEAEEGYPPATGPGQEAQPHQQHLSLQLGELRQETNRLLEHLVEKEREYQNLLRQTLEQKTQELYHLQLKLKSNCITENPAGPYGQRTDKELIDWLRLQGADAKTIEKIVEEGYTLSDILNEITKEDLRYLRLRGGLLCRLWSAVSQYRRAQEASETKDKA
# Chain of WEE1 (human) (P30291 whole entry, looked up): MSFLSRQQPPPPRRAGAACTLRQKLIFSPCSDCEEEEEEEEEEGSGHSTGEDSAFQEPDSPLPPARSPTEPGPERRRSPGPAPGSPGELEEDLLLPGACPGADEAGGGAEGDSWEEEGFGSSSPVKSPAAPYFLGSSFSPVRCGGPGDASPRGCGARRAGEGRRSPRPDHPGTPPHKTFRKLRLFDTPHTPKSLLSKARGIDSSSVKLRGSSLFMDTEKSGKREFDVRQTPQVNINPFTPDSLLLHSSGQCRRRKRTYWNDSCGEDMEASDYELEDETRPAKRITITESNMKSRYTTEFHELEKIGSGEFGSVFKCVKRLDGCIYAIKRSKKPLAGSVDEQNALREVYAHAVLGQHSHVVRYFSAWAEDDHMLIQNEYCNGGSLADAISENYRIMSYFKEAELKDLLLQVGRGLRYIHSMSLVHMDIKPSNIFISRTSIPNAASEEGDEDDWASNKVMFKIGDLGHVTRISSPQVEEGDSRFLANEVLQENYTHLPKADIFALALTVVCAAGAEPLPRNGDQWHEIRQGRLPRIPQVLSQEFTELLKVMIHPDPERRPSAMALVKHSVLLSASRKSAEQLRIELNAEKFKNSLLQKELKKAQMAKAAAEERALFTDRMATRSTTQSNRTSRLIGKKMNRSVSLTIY
# Chain of AAK1 (human) (Q2M2I8 whole entry, looked up): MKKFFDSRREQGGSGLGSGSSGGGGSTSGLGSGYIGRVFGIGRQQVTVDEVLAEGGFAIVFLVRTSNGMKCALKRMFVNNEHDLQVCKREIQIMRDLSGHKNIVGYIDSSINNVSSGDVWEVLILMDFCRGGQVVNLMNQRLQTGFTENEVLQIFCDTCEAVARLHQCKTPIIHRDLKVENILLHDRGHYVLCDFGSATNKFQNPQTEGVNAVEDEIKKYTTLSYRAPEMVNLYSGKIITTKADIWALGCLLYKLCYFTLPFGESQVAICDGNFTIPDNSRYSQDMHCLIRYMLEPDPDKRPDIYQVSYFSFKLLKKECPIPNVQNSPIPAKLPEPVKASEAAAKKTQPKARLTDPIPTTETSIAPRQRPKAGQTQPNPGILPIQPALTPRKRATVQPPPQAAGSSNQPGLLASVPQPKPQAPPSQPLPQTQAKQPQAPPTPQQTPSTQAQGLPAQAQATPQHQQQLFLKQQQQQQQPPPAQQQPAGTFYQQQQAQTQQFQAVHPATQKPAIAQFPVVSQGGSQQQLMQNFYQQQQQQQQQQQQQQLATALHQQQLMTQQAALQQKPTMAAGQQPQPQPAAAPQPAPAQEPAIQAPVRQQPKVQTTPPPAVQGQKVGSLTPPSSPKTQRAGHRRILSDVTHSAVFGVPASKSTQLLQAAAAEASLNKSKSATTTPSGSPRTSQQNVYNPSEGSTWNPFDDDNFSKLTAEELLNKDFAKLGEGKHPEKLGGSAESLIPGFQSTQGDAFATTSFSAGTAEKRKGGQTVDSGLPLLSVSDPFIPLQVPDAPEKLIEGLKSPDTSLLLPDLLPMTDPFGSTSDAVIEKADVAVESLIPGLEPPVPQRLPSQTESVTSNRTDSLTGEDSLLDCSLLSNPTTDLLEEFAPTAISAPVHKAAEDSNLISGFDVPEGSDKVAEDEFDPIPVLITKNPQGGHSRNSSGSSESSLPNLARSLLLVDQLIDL
smiles,measurement,setting,value
C=CC(=O)Nc1ccc(C(=O)c2sc(Nc3ccc(N4CCN(C)CC4)cc3OC)nc2N)cc1,"kinase still bound, per cent of control",DAPK2 (human),2.8%
same,"kinase still bound, per cent of control",CDC42BPG (human),93%
same,"kinase still bound, per cent of control",TGFBR2 (human),100%
same,"kinase still bound, per cent of control",MAPK4 (human),100%
same,"kinase still bound, per cent of control",MAP4K2 (human),4.6%
same,"kinase still bound, per cent of control",RPS6KB1 (human),100%
same,"kinase still bound, per cent of control",NEK5 (human),100%
same,"kinase still bound, per cent of control",CSF1R (human),58%
same,"kinase still bound, per cent of control",PIM2 (human),100%
same,"kinase still bound, per cent of control",CDK7 (human),5.8%
same,"kinase still bound, per cent of control",CAMK2B (human),0%
same,"kinase still bound, per cent of control",MAP3K6 (human),84%
same,"kinase still bound, per cent of control",PIP4K2B (human),32%
same,"kinase still bound, per cent of control",WEE1 (human),100%
same,"kinase still bound, per cent of control",MAP3K7 (human),73%
same,"kinase still bound, per cent of control",STK32A (human),52%
same,"kinase still bound, per cent of control",TTK (human),0.7%
same,"kinase still bound, per cent of control",[1],74%
same,"kinase still bound, per cent of control",MAPK7 (human),9.8%
same,"kinase still bound, per cent of control",GSK3A (human),67%
same,"kinase still bound, per cent of control",MAP3K15 (human),9.2%
same,"kinase still bound, per cent of control",ULK1 (human),5.1%
same,"kinase still bound, per cent of control",PDGFRB (human),54%
same,"kinase still bound, per cent of control",PRKACA (human),100%
same,"kinase still bound, per cent of control",CSNK1G3 (human),24%
same,"kinase still bound, per cent of control",MTOR (human),90%
same,"kinase still bound, per cent of control",DCLK2 (human),28%
same,"kinase still bound, per cent of control",MST1R (human),100%
same,"kinase still bound, per cent of control",AAK1 (human),11%
same,"kinase still bound, per cent of control",PAK4 (human),95%
same,"kinase still bound, per cent of control",[2],63%
same,"kinase still bound, per cent of control",TAOK1 (human),32%
same,"kinase still bound, per cent of control",MAPK13 (human),100%
same,"kinase still bound, per cent of control",HIPK1 (human),15%
same,"kinase still bound, per cent of control",GAK (human),0.8%
same,"kinase still bound, per cent of control",STK11 (human),86%
same,"kinase still bound, per cent of control",PRKCQ (human),93%
same,"kinase still bound, per cent of control",SIK3 (human),95%
same,"kinase still bound, per cent of control",NEK1 (human),64%
same,"kinase still bound, per cent of control",BRSK1 (human),98%
CNC(=O)Nc1ccc(-c2nc(N3CC4CCC(C3)O4)c3cnn(C4CCC5(CC4)OCCO5)c3n2)cc1,"kinase still bound, per cent of control",DAPK2 (human),100%
same,"kinase still bound, per cent of control",CDC42BPG (human),84%
same,"kinase still bound, per cent of control",TGFBR2 (human),100%
same,"kinase still bound, per cent of control",MAPK4 (human),100%
same,"kinase still bound, per cent of control",MAP4K2 (human),100%
same,"kinase still bound, per cent of control",RPS6KB1 (human),100%
same,"kinase still bound, per cent of control",NEK5 (human),81%
same,"kinase still bound, per cent of control",CSF1R (human),100%
same,"kinase still bound, per cent of control",PIM2 (human),74%
same,"kinase still bound, per cent of control",CDK7 (human),88%
same,"kinase still bound, per cent of control",CAMK2B (human),100%
same,"kinase still bound, per cent of control",MAP3K6 (human),80%
same,"kinase still bound, per cent of control",PIP4K2B (human),100%
same,"kinase still bound, per cent of control",WEE1 (human),79%
same,"kinase still bound, per cent of control",MAP3K7 (human),98%
same,"kinase still bound, per cent of control",STK32A (human),99%
same,"kinase still bound, per cent of control",TTK (human),100%
same,"kinase still bound, per cent of control",[1],100%
same,"kinase still bound, per cent of control",MAPK7 (human),100%
same,"kinase still bound, per cent of control",GSK3A (human),82%
same,"kinase still bound, per cent of control",MAP3K15 (human),100%
same,"kinase still bound, per cent of control",ULK1 (human),100%
same,"kinase still bound, per cent of control",PDGFRB (human),89%
same,"kinase still bound, per cent of control",PRKACA (human),75%
same,"kinase still bound, per cent of control",CSNK1G3 (human),48%
same,"kinase still bound, per cent of control",MTOR (human),5.7%
same,"kinase still bound, per cent of control",DCLK2 (human),97%
same,"kinase still bound, per cent of control",MST1R (human),100%
same,"kinase still bound, per cent of control",AAK1 (human),100%
same,"kinase still bound, per cent of control",PAK4 (human),100%
same,"kinase still bound, per cent of control",[2],89%
same,"kinase still bound, per cent of control",TAOK1 (human),100%
same,"kinase still bound, per cent of control",MAPK13 (human),16%
same,"kinase still bound, per cent of control",HIPK1 (human),100%
same,"kinase still bound, per cent of control",GAK (human),75%
same,"kinase still bound, per cent of control",STK11 (human),80%
same,"kinase still bound, per cent of control",PRKCQ (human),100%
same,"kinase still bound, per cent of control",SIK3 (human),35%
same,"kinase still bound, per cent of control",NEK1 (human),100%
same,"kinase still bound, per cent of control",BRSK1 (human),100%
O=c1[nH]c2ccccc2n1C1CCN(Cc2ccc(-c3nc4cc5[nH]cnc5cc4nc3-c3ccccc3)cc2)CC1,"kinase still bound, per cent of control",DAPK2 (human),100%
same,"kinase still bound, per cent of control",CDC42BPG (human),92%
same,"kinase still bound, per cent of control",TGFBR2 (human),100%
same,"kinase still bound, per cent of control",MAPK4 (human),100%
same,"kinase still bound, per cent of control",MAP4K2 (human),71%
same,"kinase still bound, per cent of control",RPS6KB1 (human),84%
same,"kinase still bound, per cent of control",NEK5 (human),97%
same,"kinase still bound, per cent of control",CSF1R (human),99% and 76%
same,"kinase still bound, per cent of control",PIM2 (human),91%
same,"kinase still bound, per cent of control",CDK7 (human),82%
same,"kinase still bound, per cent of control",CAMK2B (human),86%
same,"kinase still bound, per cent of control",MAP3K6 (human),100%
same,"kinase still bound, per cent of control",PIP4K2B (human),88%
same,"kinase still bound, per cent of control",WEE1 (human),99%
same,"kinase still bound, per cent of control",MAP3K7 (human),85%
same,"kinase still bound, per cent of control",STK32A (human),66%
same,"kinase still bound, per cent of control",TTK (human),100%
same,"kinase still bound, per cent of control",[1],67%
same,"kinase still bound, per cent of control",MAPK7 (human),100%
same,"kinase still bound, per cent of control",GSK3A (human),100%
same,"kinase still bound, per cent of control",MAP3K15 (human),100%
same,"kinase still bound, per cent of control",ULK1 (human),78%
same,"kinase still bound, per cent of control",PDGFRB (human),72%
same,"kinase still bound, per cent of control",PRKACA (human),100%
same,"kinase still bound, per cent of control",CSNK1G3 (human),93%
same,"kinase still bound, per cent of control",MTOR (human),100%
same,"kinase still bound, per cent of control",DCLK2 (human),92%
same,"kinase still bound, per cent of control",MST1R (human),100%
same,"kinase still bound, per cent of control",AAK1 (human),100%
same,"kinase still bound, per cent of control",PAK4 (human),74%
same,"kinase still bound, per cent of control",[2],100%
same,"kinase still bound, per cent of control",TAOK1 (human),91%
same,"kinase still bound, per cent of control",MAPK13 (human),100%
same,"kinase still bound, per cent of control",HIPK1 (human),69%
same,"kinase still bound, per cent of control",GAK (human),88%
same,"kinase still bound, per cent of control",STK11 (human),94%
same,"kinase still bound, per cent of control",PRKCQ (human),94%
same,"kinase still bound, per cent of control",SIK3 (human),88%
same,"kinase still bound, per cent of control",NEK1 (human),100%
same,"kinase still bound, per cent of control",BRSK1 (human),100%
